# Values quoted from earlier work in US20160052846A1, “METHOD OF DEMULSIFYING AND PURIFYING ORGANIC PRODUCTS FROM AN EMULSION” (CODEXIS, INC., priority 2012, published 2016).
# Where two headings read alike, the source gives them in different places.
# Details: for Water sol: in words, no temperature
Compound,Water sol,further results
"CCCC(C)O (centres unmarked) [2-pentanol, pentan-2-ol]",,Water sol (g per 100 g) (at 20° C.): 4 at 20 °C g per 100 g
"CCCCCO [Amyl alcohol, pentan-1-ol]",,Water sol (g per 100 g) (at 22° C.): 2.7 at 22 °C g per 100 g
"CC(C)CO [Isobutanol, 2-methylpropan-1-ol]",,Water sol (g per 100 g) (at 15° C.): 10 at 15 °C g per 100 g
"CC(C)CCO [Isopentanol, 3-methylbutan-1-ol]",,Water sol (g per 100 g) (at 14° C.): 2 at 14 °C g per 100 g
"CC(C)O [Isopropanol, propan-2-ol]",soluble,
"CC(C)(C)CO [Neopentyl alcohol, 2,2-dimethylpropan-1-ol]",Slightly soluble,
"CC(C)C(C)O (centres unmarked) [Sec iso amyl alcohol, 3-methylbutan-2-ol]",Slightly soluble,
propan-1-ol [Propanol],soluble,
